Laboratory results from patent publication US20260174742A1, “INHIBITORS OF CYCLIC ADP RIBOSE HYDROLASE AND METHODS OF USE THEREOF” (Flagship Pioneering Innovations VI, LLC, priority 2022, published 2026).

Biological target: T1, Human recombinant CD38 (Homo sapiens, UniProt P28907)
T1 construct: purchased BPS Bioscience
T1 sequence (P28907 1-300): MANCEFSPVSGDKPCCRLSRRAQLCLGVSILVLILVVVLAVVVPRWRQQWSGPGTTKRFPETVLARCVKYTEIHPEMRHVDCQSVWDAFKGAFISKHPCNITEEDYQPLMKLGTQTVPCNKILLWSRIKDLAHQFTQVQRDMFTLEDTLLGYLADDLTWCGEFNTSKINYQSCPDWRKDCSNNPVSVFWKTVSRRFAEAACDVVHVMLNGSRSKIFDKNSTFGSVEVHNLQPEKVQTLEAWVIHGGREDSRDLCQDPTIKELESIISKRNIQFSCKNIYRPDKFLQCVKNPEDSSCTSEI
Test: CD38 hydrolase inhibition assay (ε-NAD substrate, fluorescence)
Type: biochemical
Details: 0.2 ng/μL CD38, 100 μM ε-NAD, 15 m at room temperature, excitation 300 nm, emission 410 nm
Experimental: Example 9: CD38 Hydrolase Inhibition Assay
The CD38 hydrolase inhibition assay measures the glycohydrolase activity of CD38, using an NAD analog as substrate and measuring formation of a fluorescent ADP ribose analog. A 4× buffer was prepared with 1M sucrose and 160 mM Tris-HCl at pH 7.4, for a final assay concentration of 250 mM sucrose and 40 mM Tris-HCl. The 4× solution was kept at 4° C. and warmed to room temperature before use. Tween20 was added to 1× buffer for a final concentration of 0.05%. Human recombinant CD38 (BPS Bioscience) was diluted to 0.4 ng/μL in 1× buffer and 12.5 μL added to each plate well. Inhibitors were added and DMSO content was normalized to the highest concentration on the plate, with an upper limit of 0.5%. Finally, ε-NAD was diluted to 200 μM in 1× buffer and 12.5 μL added to each plate well, for final well concentrations of 0.2 ng/μL CD38 and 100 μM ε-NAD. Plates were covered and incubated at room temperature for 15 m, and then read on a plate reader using excitation 300 nm and emission 410 nm. […] IC50s for test compounds were determined either using GraphPad Prism software v9.3, or CDD Vault.

**Q.** Which IC50 does the source give for `CO[C@H]1CC[C@H](NC(=O)c2cc(C)cc(-n3ccnc3)c2)CC1` [Compound 101, 3-(imidazol-1-yl)-5-methyl-N-[(trans)-4-methoxycyclohexyl]benzamide] here?
**A.** Its IC50 is 100 to 1000 nM.

**Q.** Which IC50 does the source give for `CO[C@H]1CC[C@H](NC(=O)c2cc(-c3cnn(C)c3)cc(-n3ccnc3)c2)CC1` [Compound 102, 3-(imidazol-1-yl)-5-(1-methylpyrazol-4-yl)-N-[(trans)-4-methoxycyclohexyl]benzamide] here?
**A.** The IC50 was < 100 nM.

**Q.** For `CO[C@H]1CC[C@H](NC(=O)c2cc(N3CC[C@H](O)C3)cc(-n3ccnc3)c2)CC1` [Compound 104, 3-[(3S)-3-hydroxypyrrolidin-1-yl]-5-(imidazol-1-yl)-N-[(trans)-4-methoxycyclohexyl]benzamide], which IC50 is on record?
**A.** The IC50 was 100 to 1000 nM.

**Q.** For `CO[C@H]1CC[C@H](NC(=O)c2cc(-c3cncs3)cc(N3CCC[C@@H]3CO)c2)CC1` [Compound 105, 3-[(2R)-2-(hydroxymethyl)pyrrolidin-1-yl]-N-[(trans)-4-methoxycyclohexyl]-5-(1,3-thiazol-5-yl)benzamide], which IC50 is on record?
**A.** The IC50 was 100 to 1000 nM.

**Q.** For `COCCO[C@H]1CC[C@H](NC(=O)c2cc(-c3cnn(C)c3)cc(-c3cncs3)c2)CC1` [Compound 107, 3-(1-methylpyrazol-4-yl)-N-[(trans)-4-(2-methoxyethoxy)cyclohexyl]-5-(1,3-thiazol-5-yl)benzamide], which IC50 is on record?
**A.** Its IC50 is < 100 nM.

**Q.** Which IC50 does the source give for `CO[C@H]1CC[C@H](NS(=O)(=O)c2cc(C)cc(-n3ccnc3)c2)CC1` [Compound 108, 3-(imidazol-1-yl)-5-methyl-N-[(trans)-4-methoxycyclohexyl]benzene sulfonamide] here?
**A.** The IC50 was > 1000 nM.
